# According to patent US20080242594A1, “Methods for Promoting Stem Cell Proliferation and Survival” (priority 2005, published 2008):
# What was measured:
# p38 MAP kinase = p38 MAP kinase phosphorylation immunoblot in CNS stem cells; assay type: cell-based, mouse
# Excerpt: A candidate was p38MAP kinase, known to act downstream of JAK in many cells including CNS stem cells. p38 kinase has been implicated both in differentiation and cell cycle regulation, and recently, inhibition of p38 kinase enabled the proliferation of adult mammalian […] (Engel et al., Genes Dev, 2005). Inhibition of JAK blocked CNTF induced phosphorylation of p38 (FIG. 2g).
# Akt = Akt phosphorylation immunoblot in CNS stem cells; assay type: cell-based, mouse; settings: for Akt (total) / Akt-pS473 / Akt-pT308: absence of insulin
# Method: Insulin in the medium is also thought to promote cell survival. […] Seeding cells in the absence of insulin caused the plating efficiency measured at five days to drop to 29.9%±37.9 (FIG. 1e). Delta-4 was able to compensate for the lack of insulin in the medium, and restored plating efficiency (125%±19.4). Because Notch activation improved survival, activation of Akt, a ser/threonine kinase known to be involved in cell survival, was assayed. Notch activation rapidly (5 minutes) promoted the phosphorylation of Akt on Ser473 and […] in both the presence and absence of insulin (FIG. 1f).
# nucleostemin, SHH = assay: Nucleostemin and SHH protein expression in CNS stem cells; assay type: cell-based, mouse
# Excerpt: The interest in stem cell self-renewal mechanisms prompted analysis of potential down-stream components of the Notch/STAT3-Ser727 (Notch/sSTAT) pathway. Nucleostemin is a p53-binding protein expressed in self-renewing CNS stem cells and cancer cells (Tsai et al., J Neurosci 20:3725-35, 2000; Tsai et al., J Cell Biol 168:179-84, 2005). Sonic Hedgehog (SHH) is a protein with functions in fate specification and stem cell survival in the fetal and adult CNS (Palma et al., Development 132:335-44, 2005).
# There are two forms of mRNA encoded by the Hes3 gene, Hes3a and Hes3b.
# IGF1/insulin receptor = IGF1/insulin receptor phosphorylation in foetal NSC cultures; assay type: cell-based, mouse
# Method: Specifically, D114 induced the phosphorylation of IGF1/insulin receptor. Peak phosphorylation occurred at 2-5 minutes.
# It was determined that insulin facilitates Notch cleavage using immunocytochemical detection.
# [1] = test system: adult rat subventricular zone (SVZ); assay: Dividing (BrdU+) cells in SVZ after single lateral ventricle injection; assay type: in vivo; settings: BrdU for 3 days, sacrificed on the 5th day
# Method: In vivo, Notch and insulin also increase the number of dividing cells in the adult rat subventricular zone (SVZ) 5 days after a single injection It was determined that Notch and insulin co-operate to promote new (BrdU+) cells in vivo. Specifically, the reagents infused in the lateral ventricle of adult rats as a single injection. The rats were then given BrdU for 3 days and sacrificed on the 5th day (Table 10).
# [2] = test system: mouse fetal central nervous system stem cell cultures; assay: Survival of fetal CNS stem cell cultures with insulin and Dll4; assay type: cell-based
# Method: As there was a tight correlation between the Notch survival pathway and Hes3, it was investigated as to whether Hes3 is a mediator of the Notch pro-survival signalling. It was determined that both insulin and Notch activation promote the survival of foetal and adult neural stem cell cultures and their effects are additive (Tables 8-9).
# [3] = test system: Primary human central nervous system neural stem cell from pediatric subventricular zones; assay: Colony generation of primary human neural stem cells; assay type: cell-based; settings: expanded in FGF2
# Excerpt: Pharmacological Notch activation is beneficial also to primary neural stem cell cultures from non-cancerous human brain. Primary human central nervous system neural stem cell were produced from pediatric subventricular zones. These cells expanded in FGF2, and upon FGF2 withdrawal differentiated to produce colonies containing neurons, astrocytes, and oligodendrocytes (see Table 11). […] FGF2 withdrawal and subsequent differentiation of central nervous system neural stem cell cultures (fetal mouse) regulated Hes3 expression and STAT3 expression and phosphorylation in neurons, astrocytes, oligodendrocytes.
# [4] = test system: murine E13.5 cortical stem cell cultures; assay: Real-time imaging of lineage, death events and cell cycle; assay type: cell-based, mouse; settings: from 4 hours after plating, compared to controls
# Method: FIGS. 1a-1f are a set of images showing that Notch ligands stimulate survival in CNS stem cell (CNS SC) cultures. FIG. 1a is a bar graph […] the effect of Notch activation by Jagged-1, Delta-4, or combination in the presence of FGF2 for 5 days on plating efficiency, colony size, and BrdU incorporation (following a 4 hour BrdU pulse), over control treatments (FGF2 alone) FIG. 1b is a graph showing lineage and death events in murine E13.5 cortical stem cell cultures in the presence of FGF2 or FGF2 and Delta-4 (“D4”), D114 inhibits cell death in real-time cell lineage experiments (“x” marks time of death). CNS stem cells from embryonic day 13.5 mouse cerebral cortex were plated following one passage and visualized in real-time for 36 hours (images were taken every 2 min). Lineage and death events are represented. Cells were cultured in a closed gas chamber at 37° C. and images of selected fields were taken every two minutes. FIG. 1c is a line graph showing accumulative real-time imaging representation of death even times over 36 hours in culture with or without Delta-4. […] Cell cycle durations for the first two divisions are shown. FIG. 1e is a bar graph showing Delta-4 treatment of CNS SC cultures replaced the requirement for insulin in the medium in a plating efficiency assay. […] In the graphs, data represent Means ±standard deviation (SD). […]
# [5] = Insulin withdrawal, 2 days and then treat for 1 h
compound,measurement,setting,value
"CC(C)(C)c1nc2c3ccc(F)cc3c3c(=O)[nH]ccc3c2[nH]1 [JAK Inhibitor, 2-(1,1-Dimethylethyl)-9-fluoro-3,6-dihydro-7H-benz[h]-imidaz[4,5-f]isoquinolin-7-one]",phosphorylation of p38 MAP kinase at Thr180/Tyr182,p38 MAP kinase,reduced the levels of phosphorylation
Delta-4: soluble Notch ligand Delta-4 (1389-D4) from R&D,Akt (total),"Akt; Dll4, 5 min",Medium
same,Akt-pS473,"Akt; Dll4, 5 min",High
same,Akt-pT308,"Akt; Dll4, 5 min",High
same,Akt (total),"Akt; Dll4, 10 min",Medium
same,Akt-pS473,"Akt; Dll4, 10 min",Medium
same,Akt-pT308,"Akt; Dll4, 10 min",Medium
same,time of peak Akt phosphorylation on Ser473 and Ser308,"Akt; presence and absence of insulin, Western blotting",5 min
same,nucleostemin and SHH protein expression,"nucleostemin, SHH",induced nucleostemin and SHH protein expression
same,pIGF1 (19H7),IGF1/insulin receptor; [5],Low
same,pIGF1 (3021),IGF1/insulin receptor; [5],Low
same,time of peak phosphorylation of IGF1/insulin receptor,IGF1/insulin receptor; foetal NSC cultures,2 to 5 min
same,Cell #,[1],High
same,Cell #,[2],High
same,"colonies containing neurons, astrocytes, and oligodendrocytes",[3],generated significantly more of these colonies
same,death events,[4],very few death events were observed
